Where no end group is shown, it is not given here.
Key:
[1] = Learned helplessness test (LHT); format: in vivo; conditions: mice, bolus of 100 μL of a 10^-6 M solution 30 minutes before conditioning, FIG. 4
Experimental: Learned resignation or learned helplessness is a model based on the repeated administration of electric shocks to induce a resigned state in the animal.
The apparatus comprises two compartments separated by a sliding door and with a floor consisting of a metal grid through which the electrical pulses are administered. The learned helplessness protocol is divided into two stages, an animal conditioning stage and a test stage.
The conditioning was carried out over a period of four days during which time the mice received 360 non-avoidable electric shocks of 0.3 mA for one hour (the door, separating the two compartments, being closed). The shocks lasted for 2 seconds and an interval of 8 seconds was respected between each shock. This conditioning step leads to a phenomenon of helplessness in animals.
On the day of the test, the mice were placed in the same compartments but with a possibility of escaping the shock. The test counted 30 trials. During the administration of the shock, the door separating the two compartments opened, allowing the animals to flee. When the animal changes compartment the test is finished and the shock stops. […] This test made it possible to record the escape latencies of the animals. The thirty tests were then grouped by 5 and the average escape time was calculated. […]

[2] = test system: BrdU-positive cells of the dentate gyrus of the hippocampus; assay: Hippocampal neurogenesis by BrdU immunohistochemistry; format: in vivo; conditions: mice, four days of treatment, FIG. 5
Experimental: BrdU (5-bromo-2′-deoxyuridine) is a synthetic nucleoside analogous to thymidine. It is incorporated during DNA replication during phase S (chromosome duplication during interphase) of the cells in division. Injection of BrdU makes it possible to visualize the cells in division of the tissue to be analyzed by means of immunological labeling. In the present study, the hippocampal neurogenesis of the mice was evaluated after treatment with spadin or the different analogs.
After the behavioral tests, the mice were injected with BrdU at a final concentration of 120 mg/kg intraperitoneally, according to the modified protocol of Beauquis, J. et al. (Eur J Neurosci 23, 1539-1546, 2007). Four injections of 300 μl at 10 mg/ml, spaced two hours apart, were performed. 24 hours after the injections, the mice were anesthetized with pentobarbital (100 mg/kg) and then perfused intracardially. During the intracardiac perfusion, physiological saline was administered to remove all blood from the body of the mice, and then 4% paraformaldehyde (PFA) was perfused to fix the organs. Post-fixation in 4% PFA was also performed overnight. The brains of the mice were cut with a vibratome (Leica), which allowed 40 μm floating frontal sections to be obtained. The sections selected for the immunological reaction were those ranging from bregma 3.3 to 5.3. Eight sections were selected with a regular spacing, allowing the entire hippocampus to be covered while remaining homogeneous from one brain to another.
The immunological reaction was performed by incubating an anti-BrdU primary antibody (BD Pharmingen, 1/8000), with the brain sections, overnight at 4° C. The brain sections were then washed in PBS (Phosphate Buffered Saline) and incubated for two hours with the secondary antibody (biotinylated goat anti-mouse antibody, Vector laboratories, 1/400). […]
The sections were then mounted on slides and fixed with Entellan. BrdU-positive cells of the dentate gyrus of the hippocampus were counted in both hemispheres of each brain. […]

PSD-95 protein = assay: Synaptogenesis: PSD-95 expression in cortical neurons by Western blot; format: cell-based, mouse C57BI/6J; conditions: 1 μM, 0-36 hours, normalized to ß-actin, FIG. 6
Experimental: Pregnant female C57BI/6J mice (20-25 g, Janvier Labs, St Berthevin, France) were anesthetized by inhalation of 2% isoflurane mixed with 30% oxygen and 70% nitrous oxide, and then sacrificed. The embryos (E14) were removed and the cerebral cortex was dissected in PBS containing 1% glucose. Neurons were prepared from cerebral cortex by mechanical dissociation, as described in Brewer and Torricelli, 2007 [26]. The dissociated neurons were distributed in poly-L-lysine treated plates and cultured for up to 10 days in neurobasal medium containing 2% B27 (Invitrogen, Fisher Scientific, Illkirch, France) and 50 μg/ml gentamycin (Sigma France), at 37° C. under 5% CO2. […]
Cortical neurons treated with peptides G/A-PE(22-28) and biotinylated G/A-PE(22-28) for different durations (0, 5, 8, 24 and 36 hours) were homogenized in Laemmli buffer and analyzed using 10% SDS-Page gels. […] The ß-actin contents were determined after extraction using a 1/5000 dilution of anti-β-actin antibodies (Santa Cruz mouse monoclonal antibody, dilution 1/5000). […] The proteins were detected with ECL Plus detection reagents (Amersham Biosciences) using the LAS-3000 imaging system (Fujifilm, Düsseldorf, Germany). The relative intensities of each labeled band were analyzed by densitometric scanning using ImageJ software (Wayne Rasband, National Institute of Health, Bethesda, Md., USA). […]

Q: With AVSWGLR [G/A-PE(22-28), AVSWGLR] as the substance, how does the “escape latencies in the learned helplessness test” value [1] read?
A: The value was “capable of reducing the escape latencies”.

Q: And the “neurogenesis (BrdU-positive cells of the hippocampus)” value [2]?
A: The value was “increase neurogenesis more strongly than peptide PE(22-28)”.

Q: What about the “neurogenesis (BrdU-positive cells of the hippocampus)” value ([2]; listed as G/APE(22-28)) of the same substance?
A: The value was “capable of inducing an increase in neurogenesis”.

Q: And the “PSD-95 synaptic protein expression (synaptogenesis)” value (PSD-95 protein)?
A: The value was “increased PSD-95 synaptic protein expression”.

— patent publication US11220527B2, “Peptides derived from the propeptide NTSR3 and their use in the treatment of depression” (CENTRE NATIONAL DE LA RECHERCHE SCIENTIFIQUE, priority 2016, dated 2022)
